Measured values as given in patent US11542235B2, “Herbicidal 3-azaspiro[5.5] undecane-8, 10-dione compounds” (SYNGENTA PARTICIPATIONS AG, priority 2018, dated 2023).

Key:
Format in all cases: in vivo
[1] = system: Echinochloa crus-galli (ECHCG); assay: Glasshouse herbicidal test, pre- and post-emergence, Echinochloa crus-galli; details: 250 g/h, evaluated after 13 days, five point scale; for percentage damage caused to the plant, ECHCG POST: post-emergence; for percentage damage caused to the plant, ECHCG PRE: pre-emergence
Description: (§1) Seeds of a variety of test species are sown in standard soil in pots (Lolium perenne (LOLPE), Setaria faberi (SETFA), Alopecurus myosuroides (ALOMY), Echinochloa crus-galli (ECHCG), Avena fatua (AVEFA)). After cultivation for one day (pre-emergence) or after 8 days cultivation (post-emergence) under controlled conditions in a glasshouse (at 24/16° C., day/night; 14 hours light; 65% humidity), the plants are sprayed with an aqueous spray solution derived from the formulation of the technical active ingredient in acetone/water (50:50) solution containing 0.5% Tween 20 (polyoxyethelyene sorbitan monolaurate, CAS RN 9005-64-5). Compounds are applied at […]. The test plants are then grown in a glasshouse under controlled conditions in a glasshouse (at 24/16° C., day/night; 14 hours light; 65% humidity) and watered twice daily. After 13 days for pre and post-emergence, the test is evaluated for the percentage damage caused to the plant. The biological activities are shown in the following table on a five point scale (5=80-100%; 4=60-79%; 3=40-59%; 2=20-39%; 1=0-19%).

Setaria faberi (SETFA) = assay: Glasshouse herbicidal test, pre- and post-emergence, Setaria faberi; details: 250 g/h, evaluated after 13 days, five point scale; for percentage damage caused to the plant, SETFA POST: post-emergence; for percentage damage caused to the plant, SETFA PRE: pre-emergence
Description: as §1

Lolium perenne (LOLPE) = assay: Glasshouse herbicidal test, pre- and post-emergence, Lolium perenne; details: 250 g/h, evaluated after 13 days, five point scale; for percentage damage caused to the plant, LOLPE POST: post-emergence; for percentage damage caused to the plant, LOLPE PRE: pre-emergence
Description: as §1

[2] = system: Alopecurus myosuroides (ALOMY); assay: Glasshouse herbicidal test, pre- and post-emergence, Alopecurus myosuroides; details: 250 g/h, evaluated after 13 days, five point scale; for percentage damage caused to the plant, ALOMY POST: post-emergence; for percentage damage caused to the plant, ALOMY PRE: pre-emergence
Description: as §1

Avena fatua (AVEFA) = assay: Glasshouse herbicidal test, pre- and post-emergence, Avena fatua; details: 250 g/h, evaluated after 13 days, five point scale; for percentage damage caused to the plant, AVEFA POST: post-emergence; for percentage damage caused to the plant, AVEFA PRE: pre-emergence
Description: as §1

CC#Cc1cc(C)c(C2C(=O)CC3(CCN(C(=O)C(C)C)CC3)CC2=O)c(C)c1 [Compound A11]
5 (5=80-100%): percentage damage caused to the plant, ECHCG POST [1] | percentage damage caused to the plant, ECHCG PRE [1] | percentage damage caused to the plant, SETFA POST (Setaria faberi (SETFA)) | percentage damage caused to the plant, SETFA PRE (Setaria faberi (SETFA)) | percentage damage caused to the plant, LOLPE POST (Lolium perenne (LOLPE)) | percentage damage caused to the plant, LOLPE PRE (Lolium perenne (LOLPE)) | percentage damage caused to the plant, ALOMY POST [2] | percentage damage caused to the plant, ALOMY PRE [2] | percentage damage caused to the plant, AVEFA POST (Avena fatua (AVEFA)) | percentage damage caused to the plant, AVEFA PRE (Avena fatua (AVEFA))

CC#Cc1cc(C)c(C2C(=O)CC3(CCN(C(=O)C(C)(C)F)CC3)CC2=O)c(C)c1 [Compound A23]
5 (5=80-100%): percentage damage caused to the plant, ECHCG POST [1] | percentage damage caused to the plant, ECHCG PRE [1] | percentage damage caused to the plant, SETFA POST (Setaria faberi (SETFA)) | percentage damage caused to the plant, SETFA PRE (Setaria faberi (SETFA)) | percentage damage caused to the plant, LOLPE POST (Lolium perenne (LOLPE)) | percentage damage caused to the plant, LOLPE PRE (Lolium perenne (LOLPE)) | percentage damage caused to the plant, ALOMY POST [2] | percentage damage caused to the plant, ALOMY PRE [2] | percentage damage caused to the plant, AVEFA POST (Avena fatua (AVEFA)) | percentage damage caused to the plant, AVEFA PRE (Avena fatua (AVEFA))

CC#Cc1cc(C)c(C2=C(OC(=O)C(C)C)CC3(CCN(C(C)=O)CC3)CC2=O)c(C)c1 [Compound P12]
5 (5=80-100%): percentage damage caused to the plant, ECHCG POST [1] | percentage damage caused to the plant, ECHCG PRE [1] | percentage damage caused to the plant, SETFA POST (Setaria faberi (SETFA)) | percentage damage caused to the plant, SETFA PRE (Setaria faberi (SETFA)) | percentage damage caused to the plant, LOLPE POST (Lolium perenne (LOLPE)) | percentage damage caused to the plant, LOLPE PRE (Lolium perenne (LOLPE)) | percentage damage caused to the plant, ALOMY POST [2] | percentage damage caused to the plant, ALOMY PRE [2] | percentage damage caused to the plant, AVEFA POST (Avena fatua (AVEFA)) | percentage damage caused to the plant, AVEFA PRE (Avena fatua (AVEFA))

CC#Cc1cc(C)c(C2C(=O)CC3(CCN(C(=O)C(F)(F)C(F)F)CC3)CC2=O)c(C)c1 [Compound A29]
5 (5=80-100%): percentage damage caused to the plant, ECHCG POST [1] | percentage damage caused to the plant, ECHCG PRE [1] | percentage damage caused to the plant, SETFA POST (Setaria faberi (SETFA)) | percentage damage caused to the plant, SETFA PRE (Setaria faberi (SETFA)) | percentage damage caused to the plant, LOLPE POST (Lolium perenne (LOLPE)) | percentage damage caused to the plant, LOLPE PRE (Lolium perenne (LOLPE)) | percentage damage caused to the plant, ALOMY POST [2] | percentage damage caused to the plant, ALOMY PRE [2] | percentage damage caused to the plant, AVEFA POST (Avena fatua (AVEFA)) | percentage damage caused to the plant, AVEFA PRE (Avena fatua (AVEFA))

CC#Cc1cc(C)c(C2C(=O)CC3(CCN(C(C)=O)CC3)CC2=O)c(OC)c1 [Compound A15]
5 (5=80-100%): percentage damage caused to the plant, ECHCG POST [1] | percentage damage caused to the plant, ECHCG PRE [1] | percentage damage caused to the plant, SETFA POST (Setaria faberi (SETFA)) | percentage damage caused to the plant, SETFA PRE (Setaria faberi (SETFA)) | percentage damage caused to the plant, LOLPE POST (Lolium perenne (LOLPE)) | percentage damage caused to the plant, LOLPE PRE (Lolium perenne (LOLPE)) | percentage damage caused to the plant, ALOMY POST [2] | percentage damage caused to the plant, ALOMY PRE [2] | percentage damage caused to the plant, AVEFA POST (Avena fatua (AVEFA)) | percentage damage caused to the plant, AVEFA PRE (Avena fatua (AVEFA))

C#CCOC1=C(c2c(C)cc(C#CC)cc2C)C(=O)CC2(CCN(C(C)=O)CC2)C1 [Compound P17]
5 (5=80-100%): percentage damage caused to the plant, ECHCG PRE [1] | percentage damage caused to the plant, SETFA POST (Setaria faberi (SETFA)) | percentage damage caused to the plant, SETFA PRE (Setaria faberi (SETFA)) | percentage damage caused to the plant, LOLPE POST (Lolium perenne (LOLPE)) | percentage damage caused to the plant, LOLPE PRE (Lolium perenne (LOLPE)) | percentage damage caused to the plant, ALOMY POST [2] | percentage damage caused to the plant, ALOMY PRE [2] | percentage damage caused to the plant, AVEFA POST (Avena fatua (AVEFA)) | percentage damage caused to the plant, AVEFA PRE (Avena fatua (AVEFA))

CC#Cc1cc(C)c(C2C(=O)CC3(CCN(C(=O)C(F)F)CC3)CC2=O)c(C)c1 [Compound A6]
5 (5=80-100%): percentage damage caused to the plant, ECHCG POST [1] | percentage damage caused to the plant, ECHCG PRE [1] | percentage damage caused to the plant, SETFA POST (Setaria faberi (SETFA)) | percentage damage caused to the plant, SETFA PRE (Setaria faberi (SETFA)) | percentage damage caused to the plant, LOLPE POST (Lolium perenne (LOLPE)) | percentage damage caused to the plant, LOLPE PRE (Lolium perenne (LOLPE)) | percentage damage caused to the plant, ALOMY POST [2] | percentage damage caused to the plant, ALOMY PRE [2] | percentage damage caused to the plant, AVEFA POST (Avena fatua (AVEFA)) | percentage damage caused to the plant, AVEFA PRE (Avena fatua (AVEFA))
